This is an account of results in PMC6079014, “Calcium is an essential cofactor for metal efflux by the ferroportin transporter family” (Nature Communications, 2018).

In one test the target is wild type BbFpn (Bdellovibrio bacteriovorus, UniProt Q6MLJ0). Kind of test: biochemical. Type of test: binding, Bdellovibrio bacteriovorous.
The next test has as its target T1, human Fpn (Homo sapiens, UniProt Q9NP59).
T1 construct: expressed in transfected cells; host or cells: Xenopus laevis oocytes injected with Fpn RNA
T1 sequence (Q9NP59 1-571): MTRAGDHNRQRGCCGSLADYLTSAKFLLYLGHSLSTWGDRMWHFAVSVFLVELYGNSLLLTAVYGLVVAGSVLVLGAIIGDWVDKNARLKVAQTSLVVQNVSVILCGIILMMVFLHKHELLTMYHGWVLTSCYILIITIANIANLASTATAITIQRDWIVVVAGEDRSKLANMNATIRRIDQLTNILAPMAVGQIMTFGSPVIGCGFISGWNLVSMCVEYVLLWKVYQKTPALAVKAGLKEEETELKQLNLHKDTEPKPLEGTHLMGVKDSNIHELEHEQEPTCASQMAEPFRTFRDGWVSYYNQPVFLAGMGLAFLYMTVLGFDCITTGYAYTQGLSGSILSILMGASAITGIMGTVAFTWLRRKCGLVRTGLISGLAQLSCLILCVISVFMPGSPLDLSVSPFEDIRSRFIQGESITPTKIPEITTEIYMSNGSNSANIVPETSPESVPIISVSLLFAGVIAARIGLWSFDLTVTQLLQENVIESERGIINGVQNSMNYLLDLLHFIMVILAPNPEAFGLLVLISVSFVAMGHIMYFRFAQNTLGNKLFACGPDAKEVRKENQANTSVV
The experiment in a line: 55Fe efflux from HEK293T cells with tet-inducible human Fpn. The format is cell-based. On the procedure:
We measured ^55Fe efflux from HEK293 cells (E. Nemeth, UCLA) that were stably transfected with a tet-inducible human Fpn construct in pcDNA5/FRT/TO vector (Invitrogen) as described. Fpn expression was induced by adding 0.5 µg/ml doxycycline; data represent % efflux in induced minus uninduced cells. Fpn expression in mammalian cells was confirmed by visualizing GFP fluorescence, which was unaffected by removal of extracellular calcium.

Where [1] appears, read: Supplementary Figs. 5 and 9, one experiment.

Molecules are shown by their SMILES. Like-named read-outs stand apart in the source and are kept apart here.

As a reminder, the Kd is the free concentration of one partner at which half of the binding sites on the other are occupied at equilibrium, for simple one-to-one binding.

Chain of wild type BbFpn (Q6MLJ0 whole entry): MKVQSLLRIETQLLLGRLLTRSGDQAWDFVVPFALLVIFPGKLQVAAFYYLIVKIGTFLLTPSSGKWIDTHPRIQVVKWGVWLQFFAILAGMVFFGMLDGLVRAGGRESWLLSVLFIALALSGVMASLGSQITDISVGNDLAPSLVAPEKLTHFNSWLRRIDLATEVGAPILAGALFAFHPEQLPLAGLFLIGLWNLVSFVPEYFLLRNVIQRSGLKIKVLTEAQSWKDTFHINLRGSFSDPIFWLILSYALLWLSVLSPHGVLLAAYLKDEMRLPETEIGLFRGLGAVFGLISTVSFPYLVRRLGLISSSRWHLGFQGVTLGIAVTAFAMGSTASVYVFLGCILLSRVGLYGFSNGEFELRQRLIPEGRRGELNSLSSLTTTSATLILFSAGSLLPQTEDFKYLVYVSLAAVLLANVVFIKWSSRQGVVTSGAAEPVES

As for `[Ca+2]` [Ca^2+, calcium], the dissociation constant (Kd) at wild type BbFpn (20 °C, 20 mM Tris pH 8, 50 mM NaCl, 0.004% LMNG, read-out: Kd (ITC)) turned out to be 1.2e-05 ± 4e-07 M. Moreover, on wild type BbFpn (setting [1]), the “-TΔS, ITC” value is -15.3 kcal/mol; the “N (sites), ITC” value came out at 0.691 ± 8.5e-3; the “ΔG, ITC” value is -6.61 kcal/mol; the “ΔH, ITC” value is on record as 8.68 ± 0.155 kcal/mol. Besides, on wild type BbFpn (Supplementary Figs. 5 and 9, one experiment, read-out: KD (M), ITC), the Kd turned out to be 1.18e-05 M. In addition, the “Effect of extracellular Ca2+ on 55Fe efflux” value at human Fpn (HEK293T cells, 1 mM Ca2+, over 6 h (P = 0.002) and 24 h (P < 0.001), not at earlier time points) is listed as “significantly activated”. The “Effect of removal of extracellular Ca2+ on Fpn-mediated 55Fe efflux” value at human Fpn (HEK cells, 0 Ca2+ + 1 mM EGTA vs 1 mM Ca2+) is “abolished”.
